Data published in PMC9120017, “Inhibition mechanism of the chloride channel TMEM16A by the pore blocker 1PBC” (Nature Communications, 2022).
Like-named read-outs stand apart in the source and are kept apart here.

Target: T1, mouse TMEM16A mutant R515A (Mus musculus, UniProt Q8BHY3, R515A)
T1 construct: expressed in transfected cells; host or cells: HEK293T
T1 sequence (Q8BHY3 1-960 R515A): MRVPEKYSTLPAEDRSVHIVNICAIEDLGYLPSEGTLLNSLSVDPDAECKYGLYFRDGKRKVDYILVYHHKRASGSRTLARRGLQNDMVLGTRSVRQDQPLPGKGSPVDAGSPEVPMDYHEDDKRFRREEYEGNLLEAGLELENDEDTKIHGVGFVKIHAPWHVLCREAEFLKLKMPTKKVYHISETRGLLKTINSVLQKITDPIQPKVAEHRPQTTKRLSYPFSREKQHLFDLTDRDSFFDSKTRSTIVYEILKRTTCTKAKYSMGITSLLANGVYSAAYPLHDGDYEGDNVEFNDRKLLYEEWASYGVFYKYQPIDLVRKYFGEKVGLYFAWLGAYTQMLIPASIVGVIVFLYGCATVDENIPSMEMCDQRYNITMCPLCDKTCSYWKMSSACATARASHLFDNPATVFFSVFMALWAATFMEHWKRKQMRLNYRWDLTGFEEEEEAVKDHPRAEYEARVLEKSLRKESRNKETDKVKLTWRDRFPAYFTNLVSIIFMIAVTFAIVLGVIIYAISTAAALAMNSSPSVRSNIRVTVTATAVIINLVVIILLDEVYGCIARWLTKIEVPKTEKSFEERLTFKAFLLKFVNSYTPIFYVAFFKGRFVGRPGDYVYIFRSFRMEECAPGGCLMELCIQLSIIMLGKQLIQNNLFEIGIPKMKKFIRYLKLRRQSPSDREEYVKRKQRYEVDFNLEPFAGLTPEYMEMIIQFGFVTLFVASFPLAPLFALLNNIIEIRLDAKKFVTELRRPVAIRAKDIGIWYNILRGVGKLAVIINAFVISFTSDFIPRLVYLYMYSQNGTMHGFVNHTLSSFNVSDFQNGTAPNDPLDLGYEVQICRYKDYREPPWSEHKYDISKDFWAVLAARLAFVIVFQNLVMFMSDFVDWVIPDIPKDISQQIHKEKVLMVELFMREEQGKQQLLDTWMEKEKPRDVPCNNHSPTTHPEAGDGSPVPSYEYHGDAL
Assay: Inside-out patch recording of 1PBC block, mutant R515A
Format: cell-based
Protocol: HEK293T cells (ATCC CRL-1573) were maintained in Dulbecco’s modified Eagle’s medium (DMEM; Sigma-Aldrich) supplemented with 10 U ml^−1 penicillin, 0.1 mg ml^−1 streptomycin (Sigma-Aldrich), 2 mM L-glutamine (Sigma-Aldrich), and 10% FBS (Sigma-Aldrich) in a humidified atmosphere containing 5% CO2 at 37 °C. HEK293S GnTI^− cells (ATCC CRL-3022) were maintained in HyClone HyCell TransFx-H medium (GE Healthcare) supplemented with 10 U ml^−1 penicillin, 0.1 mg ml^−1 streptomycin, 4 mM L-glutamine, 0.15% poloxamer 188 (Sigma-Aldrich), and 1% FBS in an atmosphere containing 5% CO2 at 185 rpm at 37 °C. The ac splice variant of mouse TMEM16A (UniProt ID: Q8BHY3), mouse TMEM16B (UniProt ID: Q8CFW1), or mouse TMEM16F (UniProt ID: Q6P9J9) bearing a 3C cleavage site, a Venus YFP, a Myc tag, and a Streptavidin-binding peptide (SBP) downstream of the open reading frame in a modified pcDNA3.1 vector (Invitrogen) were used as described previously[21],[31]. Mutations were introduced using a modified QuikChange method[58] and were verified by sequencing.
HEK293T cells were transfected with 3–4 μg DNA per 6 cm Petri dish using the calcium phosphate co-precipitation method and were used within 24–96 h after transfection. Recordings were performed on inside-out patches excised from HEK293T cells expressing the construct of interest. Patch pipettes were pulled from borosilicate glass capillaries (O.D. 1.5 mm, I.D. 0.86 mm, Sutter Instrument) and were fire-polished with a microforge (Narishige) before use. Pipette resistance was typically 3–8 MΩ when filled with the recording solutions detailed below. Seal resistance was typically 4 GΩ or higher. Voltage-clamp recordings were made using Axopatch 200B, Digidata 1550, and Clampex 10.7 (Molecular Devices). Analog signals were filtered with the in-built 4-pole Bessel filter at 10 kHz and were digitized at 20 kHz. Solution exchange was achieved using a gravity-fed system through a theta glass pipette mounted on an ultra-fast piezo-driven stepper (Siskiyou). […] All recordings were performed at 20 °C.
A symmetrical ionic condition was used throughout. Stock solution with Ca^2+-EGTA contained 150 mM NaCl, 5.99 mM Ca(OH)2, 5 mM EGTA, and 10 mM HEPES at pH 7.40. Stock solution with EGTA contained 150 mM NaCl, 5 mM EGTA, and 10 mM HEPES at pH 7.40. Free Ca^2+ concentrations were adjusted by mixing the stock solutions at the required ratios calculated using the WEBMAXC program (http://web.stanford.edu/~cpatton/webmaxcS.htm). Patch pipettes were filled with the stock solution with Ca^2+-EGTA, which has a free Ca^2+ concentration of 1 mM. 1PBC (ChemBridge) stock was reconstituted in anhydrous DMSO (Sigma-Aldrich) at 100 mM and stored at −20 °C. Working solutions with 1PBC were prepared by serial dilution. Unless otherwise stated, experiments were performed at a saturating Ca^2+ concentration as shown in Supplementary Table 1 and the primary data were corrected for current rundown as described previously[21],[25].
Concentration-response relations, obtained from the ratio of the I-V plots before and after the application of the blocker, were fitted to the Hill equation,1 I/Imax=1/1+IC50/[blocker]^h where I/Imax is the normalized current responses, IC50 defines the concentration at which inhibition is at its half-maximum, and h is the Hill coefficient.

- IC50 (0 mV, 4 µM Ca2+): 120 µM
- remaining activity at 10 µM (10 µM 1PBC, +80 mV, saturating Ca2+ (4 µM), read-out: I/Imax): 91.2%
- remaining activity at 10 µM (10 µM 1PBC, -80 mV, saturating Ca2+ (4 µM), read-out: I/Imax): 93.3%
- remaining activity at 30 µM (30 µM 1PBC, +80 mV, saturating Ca2+ (4 µM), read-out: I/Imax): 74.8%
- remaining activity at 30 µM (30 µM 1PBC, -80 mV, saturating Ca2+ (4 µM), read-out: I/Imax): 86.5%
- remaining activity at 100 µM (100 µM 1PBC, +80 mV, saturating Ca2+ (4 µM), read-out: I/Imax): 47.7%
- remaining activity at 100 µM (100 µM 1PBC, -80 mV, saturating Ca2+ (4 µM), read-out: I/Imax): 61.6%
- remaining activity at 10 µM (1PBC 10, 0 mV, read-out: fraction of unblocked current): 92.5%
- remaining activity at 10 µM (1PBC 10, 20 mV, read-out: fraction of unblocked current): 92.3%
- remaining activity at 10 µM (1PBC 10, 40 mV, read-out: fraction of unblocked current): 92.8%
- remaining activity at 10 µM (1PBC 10, 60 mV, read-out: fraction of unblocked current): 91.6%
- remaining activity at 10 µM (1PBC 10, 80 mV, read-out: fraction of unblocked current): 91.2%
- remaining activity at 10 µM (1PBC 10, 100 mV, read-out: fraction of unblocked current): 93.9%
- remaining activity at 10 µM (1PBC 10, 120 mV, read-out: fraction of unblocked current): 90.5%
- remaining activity at 10 µM (1PBC 10, 140 mV, read-out: fraction of unblocked current): 93.5%
- remaining activity at 10 µM (1PBC 10, -20 mV, read-out: fraction of unblocked current): 92.7%
- remaining activity at 10 µM (1PBC 10, -40 mV, read-out: fraction of unblocked current): 91.8%
- remaining activity at 10 µM (1PBC 10, -60 mV, read-out: fraction of unblocked current): 91.4%
- remaining activity at 10 µM (1PBC 10, -80 mV, read-out: fraction of unblocked current): 93.3%
- remaining activity at 10 µM (1PBC 10, -100 mV, read-out: fraction of unblocked current): 92.8%
- remaining activity at 10 µM (1PBC 10, -120 mV, read-out: fraction of unblocked current): 91.8%
- remaining activity at 10 µM (1PBC 10, -140 mV, read-out: fraction of unblocked current): 93.3%
- remaining activity at 30 µM (1PBC 30, 0 mV, read-out: fraction of unblocked current): 79.3%
- remaining activity at 30 µM (1PBC 30, 20 mV, read-out: fraction of unblocked current): 77.3%
- remaining activity at 30 µM (1PBC 30, 40 mV, read-out: fraction of unblocked current): 75.6%
- remaining activity at 30 µM (1PBC 30, 60 mV, read-out: fraction of unblocked current): 73.2%
- remaining activity at 30 µM (1PBC 30, 80 mV, read-out: fraction of unblocked current): 74.8%
- remaining activity at 30 µM (1PBC 30, 100 mV, read-out: fraction of unblocked current): 73.1%
- remaining activity at 30 µM (1PBC 30, 120 mV, read-out: fraction of unblocked current): 70.9%
- remaining activity at 30 µM (1PBC 30, 140 mV, read-out: fraction of unblocked current): 70%
- remaining activity at 30 µM (1PBC 30, -20 mV, read-out: fraction of unblocked current): 81.4%
- remaining activity at 30 µM (1PBC 30, -40 mV, read-out: fraction of unblocked current): 84%
- remaining activity at 30 µM (1PBC 30, -60 mV, read-out: fraction of unblocked current): 84.5%
- remaining activity at 30 µM (1PBC 30, -80 mV, read-out: fraction of unblocked current): 86.5%
- remaining activity at 30 µM (1PBC 30, -100 mV, read-out: fraction of unblocked current): 87.5%
- remaining activity at 30 µM (1PBC 30, -120 mV, read-out: fraction of unblocked current): 86.9%
- remaining activity at 30 µM (1PBC 30, -140 mV, read-out: fraction of unblocked current): 85.6%
- remaining activity at 100 µM (1PBC 100, 0 mV, read-out: fraction of unblocked current): 55%
- remaining activity at 100 µM (1PBC 100, 20 mV, read-out: fraction of unblocked current): 53.1%
- remaining activity at 100 µM (1PBC 100, 40 mV, read-out: fraction of unblocked current): 51%
- remaining activity at 100 µM (1PBC 100, 60 mV, read-out: fraction of unblocked current): 49.1%
- remaining activity at 100 µM (1PBC 100, 80 mV, read-out: fraction of unblocked current): 47.7%
- remaining activity at 100 µM (1PBC 100, 100 mV, read-out: fraction of unblocked current): 46.8%
- remaining activity at 100 µM (1PBC 100, 120 mV, read-out: fraction of unblocked current): 47.6%
- remaining activity at 100 µM (1PBC 100, 140 mV, read-out: fraction of unblocked current): 48%
- remaining activity at 100 µM (1PBC 100, -20 mV, read-out: fraction of unblocked current): 56.9%
- remaining activity at 100 µM (1PBC 100, -40 mV, read-out: fraction of unblocked current): 59%
- remaining activity at 100 µM (1PBC 100, -60 mV, read-out: fraction of unblocked current): 60.7%
- remaining activity at 100 µM (1PBC 100, -80 mV, read-out: fraction of unblocked current): 61.6%
- remaining activity at 100 µM (1PBC 100, -100 mV, read-out: fraction of unblocked current): 61.8%
- remaining activity at 100 µM (1PBC 100, -120 mV, read-out: fraction of unblocked current): 62.9%
- remaining activity at 100 µM (1PBC 100, -140 mV, read-out: fraction of unblocked current): 62.4%
- IC50 (20 mV, 4 µM Ca2+): 110 µM
- IC50 (40 mV, 4 µM Ca2+): 102 µM
- IC50 (60 mV, 4 µM Ca2+): 92.1 µM
- log-fold IC50 (change of mutant vs WT) (80 mV): 1.6299
- IC50 (80 mV, 4 µM Ca2+): 91.4 µM
- IC50 (100 mV, 4 µM Ca2+): 88.7 µM
- IC50 (120 mV, 4 µM Ca2+): 84.4 µM
- IC50 (140 mV, 4 µM Ca2+): 86.1 µM
- IC50 (-20 mV, 4 µM Ca2+): 131 µM
- IC50 (-40 mV, 4 µM Ca2+): 145 µM
- IC50 (-60 mV, 4 µM Ca2+): 153 µM
- IC50 (-80 mV, 4 µM Ca2+): 166 µM
- IC50 (-100 mV, 4 µM Ca2+): 169 µM
- IC50 (-120 mV, 4 µM Ca2+): 172 µM
- IC50 (-140 mV, 4 µM Ca2+): 168 µM
- IC50 (R515A, V 0 mV): 120 µM
- IC50 (R515A, V 20 mV): 110 µM
- IC50 (R515A, V 40 mV): 102 µM
- IC50 (R515A, V 60 mV): 92.1 µM
- IC50 (R515A, V 80 mV): 91.4 µM
- IC50 (R515A, V 100 mV): 88.7 µM
- IC50 (R515A, V 120 mV): 84.4 µM
- IC50 (R515A, V 140 mV): 86.1 µM
- IC50 (R515A, V -20 mV): 131 µM
- IC50 (R515A, V -40 mV): 145 µM
- IC50 (R515A, V -60 mV): 153 µM
- IC50 (R515A, V -80 mV): 166 µM
- IC50 (R515A, V -100 mV): 169 µM
- IC50 (R515A, V -120 mV): 172 µM
- IC50 (R515A, V -140 mV): 168 µM
Structure (SMILES): N#Cc1c(C(F)(F)F)cc(O)n2c1nc1ccccc12 [1PBC]
